# According to patent US9353107B2 (Aurigene Discovery Technologies Limited, priority 2012, dated 2016):
# Counter-ions that a name gives are not always drawn.
# Target: T1, recombinant human ALK enzyme (ALK WT) (Homo sapiens, UniProt Q9UM73)
# T1 construct: purchased Carna Biosciences 08-518
# Assay: ALK WT cell free enzymatic assay (TR-FRET)
# Format: biochemical
# Conditions: 1 μM ATP; for IC50: 10 point dose response; for inhibition at 1 µM: compound at 1 μM; for inhibition at 1 µM / inhibition at 0.1 µM: 30 min pre-incubation; for inhibition at 0.1 µM: compound at 100 nM
# Description: ALK Wild Type (WT) The ALK WT cell free assay was set up to evaluate the effects of these compounds as inhibitors of ALK enzyme. The enzymatic assay was standardized using recombinant human ALK enzyme (Cat#08-518) from Carna Biosciences using Ultra Light Poly GT (Cat# TRF 0100D) from Perkin Elmer as a substrate. TR-FRET (Time resolved fluorescence resonance energy transfer) detection technology was used for the read out. The final assay conditions were 50 mM HEPES pH 7.1, 10 mM MgCl2, 2 mM MnCl2, 0.01% BSA, 2.5 mM DTT, 0.1 mM Na3 VO4, 40 nM Ultra Light Poly GT, 2.5 ng ALK WT enzyme, 1 μM ATP and 125 nM Lance Eu-W1024 labeled anti phospho tyrosine antibody (Cat# AD0203, Perkin Elmer) in 384 well format. The assay reaction time with the substrate was 30 minutes after which the antibody detection mix is added. The TR-FRET signal (Excitation at 340 nm, Emission at 615 nm and 665 nm) was read with 50 μs delay time on Victor^3 V fluorimeter. The data is calculated using the ratio of reading at 665 nM to 615 nM. The final concentration of DMSO was 1% in the assay. Compounds were screened at 100 nM and 1 μM concentrations with pre-incubation of the enzymes with compound for 30 minutes. Each individual IC50 was determined using 10 point dose response curve generated by GraphPad Prism software Version 4 (San Diego, Calif., USA) using non linear regression curve fit for sigmoidal dose response (variable slope). Percentage inhibition at concentrations of 100 nM and 1.0 μM are given in table along with the IC50 (nM) details for selected examples.
# T1 sequence (Q9UM73 1058-1620 limits assumed): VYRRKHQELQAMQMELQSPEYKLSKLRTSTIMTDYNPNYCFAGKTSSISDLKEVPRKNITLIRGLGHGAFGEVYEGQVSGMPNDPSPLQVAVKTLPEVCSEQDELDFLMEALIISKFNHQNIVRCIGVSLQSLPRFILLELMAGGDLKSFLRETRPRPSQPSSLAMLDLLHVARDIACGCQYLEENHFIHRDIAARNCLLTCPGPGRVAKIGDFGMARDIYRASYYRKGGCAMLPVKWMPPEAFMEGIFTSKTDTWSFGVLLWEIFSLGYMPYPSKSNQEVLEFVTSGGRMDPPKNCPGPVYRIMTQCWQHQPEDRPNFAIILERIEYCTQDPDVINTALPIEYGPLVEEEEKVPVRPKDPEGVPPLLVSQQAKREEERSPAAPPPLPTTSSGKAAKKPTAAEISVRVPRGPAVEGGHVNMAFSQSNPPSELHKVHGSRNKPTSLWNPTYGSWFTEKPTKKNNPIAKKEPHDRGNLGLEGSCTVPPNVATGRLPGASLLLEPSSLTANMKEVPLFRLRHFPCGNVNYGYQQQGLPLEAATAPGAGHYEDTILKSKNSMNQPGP
IC50 [nM],inhibition at 1 µM [%],inhibition at 0.1 µM [%],SMILES
< 50,96,,"COc1ccc(-c2cnc3[nH]cc(-c4cnn(Cc5cccc(F)c5)c4)c3c2)cc1NS(C)(=O)=O [Example 13, N-(5-(3-(1-(3-fluorobenzyl)-1H-pyrazol-4-yl)-1H-pyrrolo[2,3-b]pyridin-5-yl)-2-methoxyphenyl) methane sulfonamide]"
50 to 250,94,62,"CNS(=O)(=O)c1cc(-c2cnc3[nH]cc(-c4c(C)nn(Cc5cccc(F)c5)c4C)c3c2)ccc1OC [Example 18, 5-(3-(1-(3-fluorobenzyl)-3,5-dimethyl-1H-pyrazol-4-yl)-1H-pyrrolo[2,3-b]pyridin-5-yl)-2-methoxy-N-methylbenzenesulfonamide]"
< 50,95,80,"c1ccc(CCn2cc(-c3c[nH]c4ncc(-c5ccc(N6CCNCC6)nc5)cc34)cn2)cc1 [Example 140, 3-(1-phenethyl-1H-pyrazol-4-yl)-5-(6-(piperazin-1-yl)pyridin-3-yl)-1H-pyrrolo[2,3-b]pyridine]"
50 to 250,69,,"CS(=O)(=O)Nc1cccc(-c2cnc3[nH]cc(-c4cnn(Cc5ccc(F)cc5)c4)c3c2)c1 [Example 5, N-(3-(3-(1-(4-fluorobenzyl)-1H-pyrazol-4-yl)-1H-pyrrolo[2,3-b]pyridin-5-yl)phenyl) methanesulfonamide]"
< 50,97,90,"CS(=O)(=O)Nc1cc(-c2cnc3[nH]cc(-c4ccn(Cc5cc(F)cc(F)c5)n4)c3c2)ccc1N1CCNCC1 [Example 113, N-(5-(3-(1-(3,5-difluorobenzyl)-1H-pyrazol-3-yl)-1H-pyrrolo[2,3-b]pyridin-5-yl)-2-(piperazin-1-yl)phenyl)methanesulfonamide]"
,100,94,"Cc1cc(-c2cnc3[nH]cc(-c4cnn(Cc5cccc(F)c5)c4)c3c2)ccc1N1CCN(C[C@H](C)O)CC1 [Example 115, (S)-1-(4-(4-(3-(1-(3-fluorobenzyl)-1H-pyrazol-4-yl)-1H-pyrrolo[2,3-b]pyridin-5-yl)-2-methylphenyl)piperazin-1-yl)propan-2-ol]"
< 50,96,83,"Cc1nn(Cc2cccc(F)c2)c(C)c1-c1c[nH]c2ncc(-c3cccc(N4CCN(CCO)CC4)c3)cc12 [Example 186, 2-(4-(3-(3-(1-(3-fluorobenzyl)-3,5-dimethyl-1H-pyrazol-4-yl)-1H-pyrrolo[2,3-b]pyridin-5-yl)phenyl)piperazin-1-yl)ethanol]"
50 to 250,81,,"CS(=O)(=O)Nc1cccc(-c2cnc3[nH]cc(-c4cnn(Cc5cccc(Cl)c5)c4)c3c2)c1 [Example 10, N-(3-(3-(1-(3-chlorobenzyl)-1H-pyrazol-4-yl)-1H-pyrrolo[2,3-b]pyridin-5-yl)phenyl)methane sulfonamide]"
< 50,100,100,"Fc1cccc(Cn2cc(-c3c[nH]c4ncc(-c5ccc(NC6CCNCC6)cc5)cc34)cn2)c1 [Example 100, N-(4-(3-(1-(3-fluorobenzyl)-1H-pyrazol-4-yl)-1H-pyrrolo[2,3-b]pyridin-5-yl)phenyl)piperidin-4-amine]"
,53,13,"CS(=O)(=O)Nc1cc(-c2cnc3[nH]cc(-c4cnn(Cc5cccc(F)c5)c4)c3c2)ccc1N1CCOCC1 [Example 17, N-(5-(3-(1-(3-fluorobenzyl)-1H-pyrazol-4-yl)-1H-pyrrolo[2,3-b]pyridin-5-yl)-2-morpholinophenyl)methanesulfonamide]"
< 50,93,86,"Cc1nn(Cc2cccc(F)c2)c(C)c1-c1c[nH]c2ncc(-c3ccc(OCCCO)c(NS(C)(=O)=O)c3)cc12 [Example 25, N-(5-(3-(1-(3-fluorobenzyl)-3,5-dimethyl-1H-pyrazol-4-yl)-1H-pyrrolo[2,3-b]pyridin-5-yl)-2-(3-hydroxypropoxyl)phenyl)methanesulfonamide]"
< 50,99,97,"NC(=O)CN1CCN(c2ccc(-c3cnc4[nH]cc(-c5cnn(Cc6cc(F)cc(F)c6)c5)c4c3)cn2)CC1 [Example 136, 2-(4-(5-(3-(1-(3,5-difluorobenzyl)-1H-pyrazol-4-yl)-1H-pyrrolo[2,3-b]pyridin-5-yl)pyridin-2-yl)piperazin-1-yl)acetamide]"
> 250,87,,"CS(=O)(=O)Nc1cccc(-c2cnc3[nH]cc(-c4cnn(Cc5ccccc5)c4)c3c2)c1 [Example 12, N-(3-(3-(1-benzyl-1H-pyrazol-4-yl)-1H-pyrrolo[2,3-b]pyridin-5-yl)phenyl) methanesulfonamide]"
> 250,33,,"CS(=O)(=O)Nc1cccc(-c2cnc3[nH]cc(-c4cnn(Cc5cccc(C(F)(F)F)c5)c4)c3c2)c1 [Example 2, N-(3-(3-(1-(3-(trifluoromethyl)benzyl)-1H-pyrazol-4-yl)-1H-pyrrolo[2,3-b]pyridin-5-yl)phenyl) methanesulfonamide]"
,21,21,"COc1ccc(-c2cnc3[nH]c(C4CC4)c(-c4c(C)nn(Cc5cccc(F)c5)c4C)c3c2)cc1NS(C)(=O)=O [Example 30, N-(5-(2-cyclopropyl-3-(1-(3-fluorobenzyl)-3,5-dimethyl-1H-pyrazol-4-yl)-1H-pyrrolo[2,3-b]pyridin-5-yl)-2-methoxyphenyl)methanesulfonamide]"
,76,15,"COc1ccc(-c2cnc3[nH]cc(-c4ccn(Cc5cc(F)cc(F)c5)n4)c3c2)cc1NS(C)(=O)=O [Example 69, N-(5-(3-(1-(3,5-difluorobenzyl)-1H-pyrazol-3-yl)-1H-pyrrolo[2,3-b]pyridin-5-yl)-2-methoxyphenyl)methanesulfonamide]"
,98,60,"C[C@H](O)CN1CCN(c2ccc(-c3cnc4[nH]cc(-c5cnn(CCc6ccccc6)c5)c4c3)cn2)CC1 [Example 143, (S)-1-(4-(5-(3-(1-phenethyl-1H-pyrazol-4-yl)-1H-pyrrolo[2,3-b]pyridin-5-yl)pyridin-2-yl)piperazin-1-yl)propan-2-ol]"
< 50,100,91,"Fc1cccc(Cn2cc(-c3c[nH]c4ncc(-c5ccc(C6CCNCC6)nc5)cc34)cn2)c1 [Example 159, 3-(1-(3-fluorobenzyl)-1H-pyrazol-4-yl)-5-(6-(piperidin-4-yl)pyridin-3-yl)-1H-pyrrolo[2,3-b]pyridine]"
,48,28,"COc1ccc(-c2cnc3[nH]cc(-c4c(C)nn(Cc5cccc(F)c5)c4C)c3c2)c(OC)c1NS(C)(=O)=O [Example 29, N-(3-(3-(1-(3-fluorobenzyl)-3,5-dimethyl-1H-pyrazol-4-yl)-1H-pyrrolo[2,3-b]pyridin-5-yl)-2,6-dimethoxyphenyl)methanesulfonamide]"
< 50,100,94,"Cc1nn(Cc2cccc(F)c2)c(C)c1-c1c[nH]c2ncc(-c3ccc(N4CCNCC4)cc3)cc12 [Example 40, 3-(1-(3-fluorobenzyl)-3,5-dimethyl-1H-pyrazol-4-yl)-5-(4-(piperazin-1-yl)phenyl)-1H-pyrrolo[2,3-b]pyridine hydrochloride]"
50 to 250,97,60,"C[C@H](O)CN1CCN(c2ccc(-c3cnc4[nH]cc(-c5cnn(Cc6cccc(F)c6)c5)c4c3)nc2)CC1 [Example 146, (S)-1-(4-(6-(3-(1-(3-fluorobenzyl)-1H-pyrazol-4-yl)-1H-pyrrolo[2,3-b]pyridin-5-yl)pyridin-3-yl)piperazin-1-yl)propan-2-ol]"
< 50,87,62,"COc1ccc(-c2cnc3[nH]cc(-c4c(C)nn(Cc5cc(F)ccc5F)c4C)c3c2)cc1NS(C)(=O)=O [Example 22, N-(5-(3-(1-(2,5-difluorobenzyl)-3,5-dimethyl-1H-pyrazol-4-yl)-1H-pyrrolo[2,3-b]pyridin-5-yl)-2-methoxyphenyl)methanesulfonamide]"
< 50,100,96,"Cc1nn(Cc2cccc(F)c2)c(C)c1-c1c[nH]c2ncc(-c3ccc(C4CCNCC4)c(F)c3)cc12 [Example 175, 5-(3-fluoro-4-(piperidin-4-yl)phenyl)-3-(1-(3-fluorobenzyl)-3,5-dimethyl-1H-pyrazol-4-yl)-1H-pyrrolo[2,3-b]pyridine]"
< 50,99,92,"Cc1nn(Cc2cc(F)cc(F)c2)c(C)c1-c1c[nH]c2ncc(-c3ccc(N4CCNCC4)cc3)cc12 [Example 43, 3-(1-(3,5-difluorobenzyl)-3,5-dimethyl-1H-pyrazol-4-yl)-5-(4-(piperazin-1-yl)phenyl)-1H-pyrrolo[2,3-b]pyridine hydrochloride]"
